≈ marks a conversion by molar mass, not a printed value.
Test system: C. trachomatis
Assay: Chlamydia trachomatis growth inhibition assay in HEp-2 host cells
Type: cell-based
Conditions: for statistical significance of anti-chlamydial activity: relative to solvent controls
Procedure: The workflow for the evaluation of chlamydial growth inhibition is described in the supplementary information (Figure S6). Briefly, HEp-2 cells were seeded in a 96-well plate and grown for 24 h; they were then infected with a fixed quantity of C. trachomatis. The infection was propagated for 4 h, and then a mixture of test compound and cycloheximide was added and the plate was incubated for a further 26 h (30 h post infection). The cells were fixed with methanol and then stained with fluorescent antibodies to visualize chlamydial inclusions, and the growth was measured using inclusion counts relative to vehicle controls.
HEp-2 cells were grown until confluent in a T-75 flask with DMEM (containing 10% FCS, gentamycin (0.05 mg/mL), streptomycin (0.1 mg/mL) and glutamine (Sigma-Aldrich Cat No. G7513, 4 mM); they were then harvested with trypsin, and the cell density was determined with a haemocytometer. Cells were diluted to 1 × 10^5 cells/mL, and 200 µL was dispensed to each well in a 96-well plate and then incubated for 24 h at 5% CO2 at 37 °C.
The supernatant was removed, and 100 µL of the respective chlamydia species in media (100,000 IFU/mL) was added, giving an MOI of 0.5. The plate was sealed and centrifuged at 500× g/28 °C for 30 min and then incubated for a further 3.5 h at 37 °C with 5% CO2. The supernatant was removed, and 100 µL of cycloheximide in DMEM (1 µg/mL) was added in addition to 100 µL of drug stock solution to each respective well with DMSO and media negative controls and also azithromycin positive control. The plate was incubated for a further 26 h.
The supernatant was removed, and wells were washed with PBS (2 × 150 µL) and then fixed in methanol for eight minutes. The methanol was removed and washed with additional PBS (2 × 150 µL) and stored at 4 °C with 100 µL PBS per well and then stained and analyzed using fluorescence microscopy, which is outlined below.
Cells in fixed plates were permeabilized with 0.5% Triton X-100 in PBS for 15 min and then blocked with 1% BSA in PBS for 45 min. Anti-HtrA polyclonal antibody (sera) (1:600) (in-house), anti-mouse tubulin (Sigma-Aldrich Cat no. T-5168, 1:3000) and DAPI (125 ng/mL) in PBS were added to each well (70 µL) and then gently shaken at room temperature while shielding it from light for 45 min. The primary antibodies were removed, and the wells were washed with PBS (4 × 150 µL). Secondary antibodies (goat anti-rabbit Alexafluor 488, Thermo Fisher Cat No. A-11008 and goat anti-mouse Alexafluor 568 (Thermo Fisher Cat No. A-11004)) in PBS (70 µL, 1:600 respectively) were added and the wells were gently shaken at room temperature while shielding them from light for 45 min. The antibodies were removed, and the wells were washed with PBS (5 × 150 µL); cells were then stored with PBS (100 µL per well) at 4 °C pending analysis.
Plates were analyzed on an INcell Analyzer 2200 (Cytiva Life Sciences, Marlborough, MA, USA) using both laser autofocus (10%) and software autofocus modes, with ten random images per well covering a minimum of 80% of the well at 10x magnification. Non-morphologically affected inclusions were counted using a macro in ImageJ (v1.54f), and MIC was defined as being one two-fold dilution more concentrated than MICTP (where MICTP is defined as the lowest concentration to produce ≥90% morphologically abnormal inclusions) relative to solvent controls.

[1] = 62.5 µM, 30 h post infection, HEp-2 host cells

| Compound | statistical significance of anti-chlamydial activity (62.5 µM) | anti-chlamydial activity against C. trachomatis [1] | further results |
| --- | --- | --- | --- |
| CCC(C)Oc1oc(=O)c2ccccc2c1Cl (racemic) [Compound 2g, (±)-3-sec-Butoxy-4-chloroisocoumarin] |  |  | reduction of chlamydial growth [1]: 49% |
| CCC(C)Oc1oc(=O)c2cc(N)ccc2c1Cl (racemic) [Compound 6a, (±)-7-Amino-4-chloro-3-sec-butoxyisocoumarin] | statistically significant anti-chlamydial activity |  | chlamydial inclusions affected [1]: ≥ 90%; inhibition of C. trachomatis growth versus 90% threshold (any concentration tested, 30 h post infection, dose-response): did not consistently show inhibition greater than the 90% threshold |
| CCC(C)Oc1oc(=O)c2cc(N(C)C)ccc2c1Cl (racemic) [Compound 6b, (±)-7-(Dimethylamino)-3-sec-butoxy-4-chloroisocoumarin] | statistically significant anti-chlamydial activity |  | chlamydial inclusions affected [1]: ≥ 90%; inhibition at 31.25 µM (Chlamydia trachomatis, HEp-2, concentrations ≥ 31.25 µM, 30 h post infection, dose-response): > 90%; MIC (Chlamydia trachomatis, MIC defined as twice the MICTP (>90% altered chlamydial morphology), read-out: MIC (minimum inhibitory concentration) against C. trachomatis): 62.5 µM (≈ 18.5 µg/mL) |
| CCC(C)Oc1oc(=O)c2cc(NC(C)=O)ccc2c1Cl (racemic) [Compound 6c, (±)-N-(4-Chloro-1-oxo-3-sec-butoxy-isochromen-7-yl)acetamide] |  | did not significantly affect the efficacy of 2g |  |
| CCC(C)Oc1oc(=O)c2cc(NC(=O)C(F)(F)F)ccc2c1Cl (racemic) [Compound 6d, (±)-N-(4-chloro-1-oxo-3-sec-butoxy-isochromen-7-yl)-2,2,2-trifluoroacetamide] | statistically significant anti-chlamydial activity | comparable efficacy to the methoxy (6h) analogue |  |
| CCC(C)Oc1oc(=O)c2cc(I)ccc2c1Cl (racemic) [Compound 6e, (±)-3-sec-Butoxy-4-chloro-7-iodoisocoumarin] | statistically significant anti-chlamydial activity | did not significantly affect the efficacy of 2g |  |
| CCC(C)Oc1oc(=O)c2cc(OC)ccc2c1Cl (racemic) [Compound 6h, (±)-7-Methoxy-3-sec-butoxy-4-chloroisocoumarin] | statistically significant anti-chlamydial activity |  |  |
